Source: patent US8492395B2, “7-substituted quinazolinone compounds and compositions comprising the same” (Celgene Corporation, priority 2007, dated 2013)

How the values were obtained:
IL-2 = IL-2 production by T cells (anti-CD3 stimulated, ELISA); assay type: cell-based; conditions: T-cell, one collective range stated for the tested compounds, read-out: EC50 values for stimulating the production of IL-2
Protocol: 5.48.2 […] and MIP-3α Production by T Cells
PBMC are depleted of adherent monocytes by placing 1×10^8 PBMC in 10 ml complete medium (RPMI 1640 supplemented with 10% heat-inactivated fetal bovine serum, 2 mM L-glutamine, 100 U/ml penicillin, and 100 μg/ml streptomycin) per 10 cm tissue culture dish, in 37° C., 5% CO2 incubator for 30-60 minutes. The dish is rinsed with medium to remove all non-adherent PBMC. T cells are purified by negative selection using the following antibody (Pharmingen) and Dynabead (Dynal) mixture for every 1×10^8 non-adherent PBMC: 0.3 ml Sheep anti-mouse IgG beads, 15 μl anti-CD16, 15 μl anti-CD33, 15 μl anti-CD56, 0.23 ml anti-CD19 beads, 0.23 ml anti-HLA class II beads, and 56 μl anti-CD14 beads. The cells and bead/antibody mixture is rotated end-over-end for 30-60 minutes at 4° C. Purified T cells are removed from beads using a Dynal magnet. Typical yield is about 50% T cells, 87-95% CD3^+ by flow cytometry.
Tissue culture 96-well flat-bottom plates are coated with anti-CD3 antibody OKT3 at 5 μg/ml in PBS, 100 μl per well, incubated at 37° C. for 3-6 hours, then washed four times with complete medium 100 μl/well just before T cells are added. Compounds are diluted to 20 times of final in a round bottom tissue culture 96-well plate. Final concentrations are about 10 μM to about 0.00064 μM. A 10 mM stock of compounds provided herein is diluted 1:50 in complete for the first 20× dilution of 200 μM in 2% DMSO and serially diluted 1:5 into 2% DMSO. Compound is added at 10 μl per 200 μl culture, to give a final DMSO concentration of 0.1%. Cultures are incubated at 37° C., 5% CO2 for 2-3 days, and supernatants analyzed for IL-2 and MIP-3α by ELISA (R&D Systems). IL-2 and MIP-3 cc levels are normalized to the amount produced in the presence of an amount of a compound provided herein, and EC50s calculated using non-linear regression, sigmoidal dose-response, constraining the top to 100% and bottom to 0%, allowing variable slope (GraphPad Prism v3.02).
Abilities of certain compounds for stimulating the production of IL-2 were determined using procedures substantially similar to those described in Section 5.48.2, above.

Namalwa AG4 cells = experiment: Cell proliferation assay (3H-thymidine incorporation); assay type: cell-based; conditions: one collective range stated for the tested compounds, read-out: IC50 values for inhibiting proliferation of Namalwa AG4 cells
Protocol: 5.48.3 Cell Proliferation Assay
Cell lines Namalwa, MUTZ-5, and UT-7 are obtained from the Deutsche Sammlung von Mikroorganismen und Zellkulturen GmbH (Braunschweig, Germany). The cell line KG-1 is obtained from the American Type Culture Collection (Manassas, Va., USA). Cell proliferation as indicated by ^3H-thymidine incorporation is measured in all cell lines as follows.
Cells are plated in 96-well plates at 6000 cells per well in media. The cells are pre-treated with compounds at about 100, 10, 1, 0.1, 0.01, 0.001, 0.0001 and 0 μM in a final concentration of about 0.25% DMSO in triplicate at 37° C. in a humidified incubator at 5% CO2 for 72 hours. One microcurie of 3H-thymidine (Amersham) is then added to each well, and cells are incubated again at 37° C. in a humidified incubator at 5% CO2 for 6 hours. The cells are harvested onto UniFilter GF/C filter plates (Perkin Elmer) using a cell harvester (Tomtec), and the plates are allowed to dry overnight. Microscint 20 (Packard) (25 μl/well) is added, and plates are analyzed in TopCount NXT (Packard). Each well is counted for one minute. Percent inhibition of cell proliferation is calculated by averaging all triplicates and normalizing to the DMSO control (0% inhibition). Each compound is tested in each cell line in three separate experiments. Final IC50s are calculated using non-linear regression, sigmoidal dose-response, constraining the top to 100% and bottom to 0%, allowing variable slope. (GraphPad Prism v3.02).
Abilities of certain compounds for inhibiting proliferation of Namalwa AG4 cells were determined using procedures substantially similar to those described in Section 5.48.3, above.

EC50 (IL-2) | melting point | Compound | IC50 (Namalwa AG4 cells)
0.1 to 3.5 µM | 201 to 203 °C | Cc1nc2ccc(CNC(=O)Nc3ccc(OC(F)(F)F)cc3)cc2c(=O)n1C1CCC(=O)NC1=O (centres unmarked) [1-[3-(2,6-dioxo-piperidin-3-yl)-2-methyl-4-oxo-3,4-dihydro-quinazolin-6-ylmethyl]-3-(4-trifluoromethoxy-phenyl)-urea] | 0.01 to 5.5 µM
0.1 to 3.5 µM | 220 to 222 °C | CCCCCCNC(=O)NCc1ccc2nc(C)n(C3CCC(=O)NC3=O)c(=O)c2c1 (centres unmarked) [1-[3-(2,6-dioxo-piperidin-3-yl)-2-methyl-4-oxo-3,4-dihydro-quinazolin-6-ylmethyl]-3-hexyl-urea] | 0.01 to 5.5 µM
0.1 to 3.5 µM | – | Cc1nc2ccc(N)cc2c(=O)n1C1CCC(=O)NC1=O (centres unmarked) [3-(6-amino-2-methyl-4-oxo-4H-quinazolin-3-yl)-piperidine-2,6-dione] | 0.01 to 5.5 µM
0.1 to 3.5 µM | 315 to 317 °C | Cc1nc2ccc(O)cc2c(=O)n1C1CCC(=O)NC1=O (centres unmarked) [3-(6-hydroxy-2-methyl-4-oxo-4H-quinazolin-3-yl)-piperidine-2,6-dione] | –
0.1 to 3.5 µM | – | Cc1nc2cc(N)ccc2c(=O)n1C1CCC(=O)NC1=O (centres unmarked) [3-(7-amino-2-methyl-4-oxo-4H-quinazolin-3-yl)-piperidine-2,6-dione] | 0.01 to 5.5 µM
0.1 to 3.5 µM | – | Cc1nc2cc(Br)ccc2c(=O)n1C1CCC(=O)NC1=O (centres unmarked) [3-(7-bromo-2-methyl-4-oxo-4H-quinazolin-3-yl)-piperidine-2,6-dione] | 0.01 to 5.5 µM
0.1 to 3.5 µM | 291 to 293 °C | Cc1nc2cc(Cl)ccc2c(=O)n1C1CCC(=O)NC1=O (centres unmarked) [3-(7-chloro-2-methyl-4-oxo-4H-quinazolin-3-yl)-piperidine-2,6-dione] | 0.01 to 5.5 µM
0.1 to 3.5 µM | 243 to 245 °C | Cc1nc2cc(F)ccc2c(=O)n1C1CCC(=O)NC1=O (centres unmarked) [3-(7-fluoro-2-methyl-4-oxo-4H-quinazolin-3-yl)-piperidine-2,6-dione] | 0.01 to 5.5 µM
